One data set has as its system target receptors. Further details: method as in PMID 21204634. Conditions: cited from earlier work.
Data set [1] in a line: Population pharmacokinetic analysis in healthy subjects after intravenous administration of nintedanib (one-compartment model). Conditions: healthy subjects, intravenous nintedanib; estimate (RSE%). The format is in vivo, human. From the text: The pharmacokinetic profile of BIBF 1202 was best described by a one-compartment model with first-order elimination (see Online Resource Fig. S1 for model structure). To account for formation of BIBF 1202 in the intestine or via hepatic first-pass effect, a first-order absorption with lag time (ALAG2) was implemented as per nintedanib absorption. The relative bioavailability (F2) and the absorption-rate constant (k a2) were implemented as functions of nintedanib F1 and k a, respectively (substantial drop in OFV as compared to a model, where F2 and k a2 were estimated independently of F1 and k a). This parametrization accounted for correlations between nintedanib and BIBF 1202 parameters and replaced the full variance–covariance matrix which was not applied due to the sequential modeling approach used. The rate of formation of BIBF 1202 (k met) during nintedanib systemic elimination was accounted by defining it as a function of nintedanib clearance: k met = CL/V2*ffM, where CL and V2 denote the clearance and central volume of distribution of nintedanib respectively, and ffM denotes the proportion of the nintedanib elimination resulting in BIBF 1202 formation. Due to the lack of data for BIBF 1202 given as an intravenous (IV) infusion, several parameter estimates were not identifiable (ffM, BIBF 1202 apparent volume of distribution [V3/F]) and were, therefore, fixed. The value for ffM was derived from pharmacokinetic data after IV administration of nintedanib (Online Resource Table S4) and the ratio of V3/F–V2/F was fixed based on information observed in rats. […] In addition to the (inter-individual) variability of F2 induced by the variability in F1 (F2 being proportional to F1), additional IIV could be implemented for F2.
Table S4 Structural parameters for nintedanib and BIBF 1202 from a population pharmacokinetic analysis based on healthy subjects (n=23^a, 372 observations) after intravenous administration of nintedanib
One subject (3 mg dose) was excluded from analysis due to increasing plasma concentrations of nintedanib after end of infusion

The next data set has as its system PDGFRβ. Further details: method as in Boehringer Ingelheim unpublished data, 14. Conditions: PDGFRβ stimulation of primary lung fibroblasts; ref Boehringer Ingelheim unpublished data, 14; cited from earlier work.
On the set-up of data set [2]: method as in PMID 21204634. Conditions: dedicated ADME study; cited from earlier work.
The nature of data set [3]: Population pharmacokinetic model of metabolite BIBF 1202 plasma concentrations in patients with NSCLC or IPF treated with nintedanib. The format is in vivo, human. From the text: This population pharmacokinetic analysis pooled data from nintedanib treatment in four clinical studies; 1 Phase II (n = 73) and two Phase III trials in patients with NSCLC (LUME-Lung 1 (n = 652) and LUME-Lung 2 (n = 347)) and one Phase II trial (TOMORROW, n = 343) in patients with IPF [11] (data from IPF Phase III trials were not available at time of analysis). An overview of these studies is provided in Online Resource Table S1. In the NSCLC Phase II trial, patients with locally advanced or metastatic relapsed NSCLC in whom first- or second line platinum-based chemotherapy had failed and were randomized to nintedanib 150 or 250 mg twice-daily. Treatment continued until disease progression or intolerable toxicity. In the NSCLC Phase III trials, nintedanib 200 mg twice-daily or placebo was given in repeated 21 day treatment cycles in combination with single infusions of docetaxel 75 mg/m^2 (LUME-Lung 1 trial) or pemetrexed 500 mg/m^2 (LUME-Lung 2 trial), administered on day 1 of each cycle. Treatment cycles were continued until disease progression or intolerable toxicity. In the Phase II trial in patients with IPF [11], patients were randomized to a 52-week treatment period with one of the four doses of nintedanib (50 mg once or twice-daily, 100, 150 mg twice-daily) or placebo. In all four trials, dose reductions and interruptions were allowed to manage adverse events. All studies were conducted in accordance with the Declaration of Helsinki and with approval of the local ethics committees. Written informed consent was obtained from all patients before study entry.
Blood sampling schema for measurement of nintedanib plasma concentrations varied. For all trials, at least two pre-dose and two post-dose blood samples were scheduled during treatment (see Online Resource Table S1). In addition, more extensive sampling was performed in the two Phase II trials. Nintedanib and BIBF 1202 plasma concentrations were analyzed by validated liquid chromatography–mass spectrometry (HPLC–MS/MS) methods. The calibration curves covered the range 0.5–500 ng/mL for nintedanib and 1–1000 ng/mL for BIBF 1202 in undiluted plasma samples and were linear over this range.
The population pharmacokinetic analysis was performed using non-linear mixed-effects modeling techniques (NONMEM, version VI 2.0, ICON Development Solutions, Ellicott City, Maryland, USA). The first-order conditional estimation algorithm with interaction was used. Data processing, diagnostic plots, and calculation of descriptive statistics were performed using R version 2.12.1 (http://www.rproject.org) and SAS version 9.2 (SAS Institute Inc, Cary, NC, USA). Bootstrap analysis was performed using Perl-speaks-NONMEM, version 3.5.3 [24, 25].
Using fixed pharmacokinetic parameter estimates from the nintedanib base model (typical values plus empirical Bayes estimates of individual η), the base model of BIBF 1202 was developed. Plasma concentrations of nintedanib and BIBF 1202 were reported in nM to account for differences in their molecular weight.
The covariate analysis for BIBF 1202 was based on the fixed pharmacokinetic parameters of the final nintedanib model and base model of BIBF 1202 and followed the same principles described for nintedanib (see Online Resource Table S3).
Model evaluation for BIBF 1202 was analogous to nintedanib, with the exception of the non-parametric bootstrap analysis.
Finally, after the sequential pharmacokinetic analysis for nintedanib and BIBF 1202, the parameters for the final models of nintedanib and BIBF 1202 were estimated simultaneously.
To illustrate individual covariate effects, the change in the median steady-state nintedanib and BIBF 1202 plasma concentration–time profiles were compared to the exposure in a typical patient. The typical patient was defined by baseline medians (continuous covariate) and modes (categorical covariate) of the respective covariates in the total analyzed population. […]

Data set [4] relates to VEGF or bFGF stimulation of human umbilical vascular endothelial cells. Further details: method as in Boehringer Ingelheim unpublished data, 14. The note with it: VEGF or bFGF stimulation of HUVEC; ref Boehringer Ingelheim unpublished data, 14; cited from earlier work.
For the next data set, the system named is PDGFRα. Details: method as in Boehringer Ingelheim unpublished data, 14. Conditions: PDGFRα stimulation of primary lung fibroblasts; ref Boehringer Ingelheim unpublished data, 14; cited from earlier work.
The subject of another data set is mouse xenograft models. Details: method as in ref 7 = [7]; 7. European Medicines Agency (2014) Committee for Medicinal Products for Human Use (CHMP) Assessment Report for Vargatef (nintedanib), 25 September 2014. http://www.ema.europa.eu/docs/en_GB/document_l. The note with it: cited from earlier work.
Setting [5] is: final BIBF 1202 model (sequential fit), estimate (RSE%).
The mark [6] stands for this setting: final BIBF 1202 model (sequential fit), reference Caucasian/Black origin = 1.00, estimate (RSE%).

Several values for one entry are separate records, joined by “and”; a condition that tells them apart may be missing. Identical values can stand only once. Marks after values point to notes of the source that are not given here.

As to `CN1CCN(CC(=O)N(C)c2ccc(N/C(=C3\C(=O)Nc4cc(C(=O)O[C@@H]5O[C@H](C(=O)O)[C@@H](O)[C@H](O)[C@H]5O)ccc43)c3ccccc3)cc2)CC1` [BIBF 1202 glucuronide], the “in vitro activity at the target receptors” value in the data set with target receptors is recorded as “did not show in vitro activity”.
Take `CN1CCN(CC(=O)N(C)c2ccc(N/C(=C3\C(=O)Nc4cc(C(=O)O)ccc43)c3ccccc3)cc2)CC1` [BIBF 1202]: the “CL2, total body clearance for BIBF 1202” value in data set [1] is given as 0.513 (17.0) L/h. The “lower potency compared to nintedanib” value in the data set on PDGFRβ was 607 fold. For the same compound, in data set [2], the “metabolic ratio for AUC (BIBF 1202 to nintedanib)” value is recorded as approximately 1 and the “metabolic ratio for Cmax (BIBF 1202 to nintedanib)” value is given as approximately 1. In addition, the “changes in BIBF 1202 exposure by ECOG performance status and LDH” value in data set [3] (covariates influencing BIBF 1202 but not nintedanib exposure) was less than 30%. Moreover, in data set [3] (final BIBF 1202 model (sequential fit), estimate (RSE% on the variance scale)), the “IIV in F2” value is 56.7 (8.60^f) CV% and 56.7 (8.60^e) CV%. Further, in data set [3] (setting [5]), the “CL2/F (θCL2), apparent total body clearance for BIBF 1202” value is listed as 7.05 (6.37) L/h; the “F2/F1 (θF2F1), ratio of relative bioavailabilities BIBF 1202 to nintedanib” value is on record as 0.0110 (11.3); the “covariate effect on F2, θLDH_Breakpoint (breakpoint for LDH)” value is listed as 688 (22.0) U/L; the “covariate effect on F2, θWT” value is given as -0.848 (12.2). In data set [3] (setting [5]), the “ka2/ka (θka2ka), ratio of absorption rate constants BIBF 1202 to nintedanib” value is listed as 1.47 (8.16). In addition, the “covariate effect on F2, θLDH (coefficient for LDH [U/L])” value in data set [3] (final BIBF 1202 model (sequential fit), hockey-stick function, estimate (RSE%)) was 0.000656 (22.1). In addition, in data set [3] (setting [6]), the “covariate effect on F2, θEthnicity: Asian origin (except for Indian)” value is 1.20 (4.83) and the “covariate effect on F2, θEthnicity: Indian origin” value is recorded as 1.90 (13.5). In data set [3] (final BIBF 1202 model (sequential fit), reference ECOG=0 = 1.00, estimate (RSE%)), the “covariate effect on F2, θECOG: ECOG≥1” value is listed as 1.16 (4.16). Moreover, in data set [3] (final BIBF 1202 model (sequential fit), reference LUME-Lung 1 and LUME-Lung 2 = 1.00, estimate (RSE%)), the “covariate effect on ka2, θTrial: NSCLC Phase II and IPF Phase II” value is listed as 0.756 (7.72). In data set [3] (final BIBF 1202 model (sequential fit), reference adenocarcinoma = 1.00, estimate (RSE%)), the “covariate effect on ka2, θNSCLC_histology: non-adenocarcinoma” value is reported as 1.36 (8.90). Besides, in data set [3] (final model, systemic formation rate fixed to the value from the IV study), the “share of BIBF 1202 in plasma formed systemically” value was “about 8%”. The “upper limit of the predicted 2 h post-dose concentration for Indian patients” value in data set [3] (pcQPC of the final BIBF 1202 model, 95% prediction interval of simulated medians, steady state) is given as 88 ng/mL. Moreover, in data set [3] (simultaneous estimation), the “F2/F1 (θF2F1)” value was 0.0153 (–); the “IIV in F2” value is reported as 47.9 (–) CV%; the “covariate effect on F2, θECOG: ECOG≥1” value was 1.13 (–); the “covariate effect on F2, θEthnicity: Asian origin (except for Indian)” value is recorded as 1.19 (–). In data set [3] (simultaneous estimation), the “covariate effect on F2, θEthnicity: Indian origin” value is listed as 1.81 (–); the “covariate effect on F2, θLDH (coefficient for LDH [U/L])” value was 0.00064 (–); the “covariate effect on F2, θLDH_Breakpoint (breakpoint for LDH)” value is 683 (–) U/L; the “covariate effect on F2, θWT” value is -0.791 (–). Besides, in data set [3] (simultaneous estimation), the “covariate effect on ka2, θNSCLC_histology: non-adenocarcinoma” value was 1.24 (–); the “covariate effect on ka2, θTrial: NSCLC Phase II and IPF Phase II” value is 0.864 (–); the “ka2/ka (θka2ka)” value was 1.14 (–). In data set [3] (simultaneous estimation of nintedanib and BIBF 1202 models, RSE not available), the “CL2/F (θCL2)” value was 9.68 (–) L/h. For the same compound, the “lower potency compared to nintedanib” value in data set [4] is listed as 9–10 fold. Moreover, the “lower potency compared to nintedanib” value in the data set with PDGFRα is on record as 265 fold. The “efficacy in mouse xenograft models” value with mouse xenograft models was “not effective”.

Values taken from paper PMC5754397, “Population pharmacokinetics of nintedanib, an inhibitor of tyrosine kinases, in patients with non-small cell lung cancer or idiopathic pulmonary fibrosis” (Cancer Chemotherapy and Pharmacology, 2017).
